Measured values reported in the NIST ThermoML archive (doi:10.1016/j.jct.2006.09.012).
± gives the expanded uncertainty stated by the source.

Settings: Liquid, Buoyancy - hydrostatic balance with magnetic suspension - two sinkers

CCOC(F)(C(F)(F)C(F)(F)C(F)(F)F)C(F)(C(F)(F)F)C(F)(F)F (stereo not drawn) [2-trifluoromethyl-3-ethoxydodecafluorohexane]
Settings	mass density [kg/m3]
285 K, 1204.2 kPa	1650.59 ± 2.2
285 K, 1204.8 kPa	1650.6 ± 2.2
285 K, 1205.2 kPa	1650.59 ± 2.2
285 K, 5212.8 kPa	1659.79 ± 2.2
285 K, 5220.2 kPa	1659.81 ± 2.2
285 K, 10181 kPa	1670.44 ± 2.2
285 K, 10197 kPa	1670.47 ± 2.2
308 K, 19845 kPa	1649.2 ± 2.2
308.01 K, 1314.5 kPa	1604.24 ± 2.1
308.01 K, 1320.9 kPa	1604.26 ± 2.1
308.01 K, 1331 kPa	1604.29 ± 2.1
308.01 K, 5215.7 kPa	1614.98 ± 2.1
308.01 K, 5219.6 kPa	1614.99 ± 2.1
308.01 K, 5223.4 kPa	1615 ± 2.1
308.01 K, 10450 kPa	1628.17 ± 2.2
308.01 K, 10468 kPa	1628.21 ± 2.2
308.01 K, 10476 kPa	1628.24 ± 2.2
308.01 K, 19786 kPa	1649.07 ± 2.2
308.01 K, 19825 kPa	1649.16 ± 2.2
350 K, 1285.8 kPa	1515.32 ± 2.1
350 K, 1286 kPa	1515.32 ± 2.1
350 K, 1286.3 kPa	1515.32 ± 2.1
350 K, 1286.4 kPa	1515.32 ± 2.1
350 K, 1286.7 kPa	1515.32 ± 2.1
350 K, 1286.8 kPa	1515.32 ± 2.1
350 K, 5286.1 kPa	1531.01 ± 2.1
350 K, 5291 kPa	1531.03 ± 2.1
350 K, 10388 kPa	1548.66 ± 2.1
350 K, 10394 kPa	1548.69 ± 2.1
350 K, 10401 kPa	1548.71 ± 2.1
350 K, 16836 kPa	1568.2 ± 2.2
350 K, 16850 kPa	1568.24 ± 2.2
350 K, 17082 kPa	1568.89 ± 2.2
350 K, 19716 kPa	1576.14 ± 2.2
350 K, 19732 kPa	1576.18 ± 2.2
350 K, 19786 kPa	1576.33 ± 2.2
400 K, 1164.3 kPa	1398.22 ± 2
400 K, 1164.4 kPa	1398.22 ± 2
400 K, 1164.7 kPa	1398.23 ± 2
400 K, 5225.5 kPa	1424.08 ± 2
400 K, 5227.2 kPa	1424.09 ± 2
400 K, 5228.8 kPa	1424.1 ± 2
400 K, 9975.6 kPa	1448.91 ± 2.1
400 K, 9979.7 kPa	1448.93 ± 2.1
400 K, 9984.1 kPa	1448.95 ± 2.1
400 K, 19197 kPa	1487.27 ± 2.1
400 K, 19208 kPa	1487.3 ± 2.1
400 K, 19218 kPa	1487.34 ± 2.1
400 K, 19258 kPa	1487.49 ± 2.1
400 K, 19276 kPa	1487.55 ± 2.1
400 K, 19287 kPa	1487.59 ± 2.1
400 K, 19317 kPa	1487.71 ± 2.1
400 K, 19328 kPa	1487.74 ± 2.1
400 K, 19347 kPa	1487.81 ± 2.1
400 K, 19369 kPa	1487.89 ± 2.1
400 K, 19380 kPa	1487.93 ± 2.1
400 K, 19391 kPa	1487.97 ± 2.1
400 K, 19416 kPa	1488.07 ± 2.1
400 K, 19495 kPa	1488.35 ± 2.1
400 K, 19519 kPa	1488.44 ± 2.1
400 K, 19543 kPa	1488.53 ± 2.1
400 K, 19560 kPa	1488.59 ± 2.1
400 K, 19582 kPa	1488.67 ± 2.1
